From ChEMBL document CHEMBL1153978, “8-[2-(4-Aryl-1-piperazinyl)ethyl]-2H-1,4-benzoxazin-3(4H)-ones: dual-acting 5-HT1 receptor antagonists and serotonin reuptake inhibitors--part II” (Bioorg Med Chem Lett, 2009)

What was measured:
[1] = Volume of distribution at steady state in rat at 0.5 mg/kg, iv and 1 mg/kg, po; assay type: ADME, organism-based; conditions: in vivo, read-out: Vdss
Liver microsomes = test: Intrinsic clearance in human liver microsomes; assay type: ADME, Microsome
[2] = Oral bioavailability in rat 1 mg/kg; assay type: ADME, organism-based; conditions: in vivo
[3] = Clearance in rat blood at 0.5 mg/kg, iv and 1 mg/kg, po; assay type: ADME, organism-based; conditions: whole blood
[4] = Half life in rat at 0.5 mg/kg, iv and 1 mg/kg, po; assay type: ADME, organism-based; conditions: in vivo
[5] = Ratio of drug level in rat brain to plasma at 0.5 mg/kg, iv and 1 mg/kg, po; assay type: ADME, organism-based

Structure (SMILES)	Vd [1]	CL (Liver microsomes)	bioavailability [2]	clearance [3]	half-life [4]	Kp [5]
Cc1ccc2c(N3CCN(CCc4ccc5c(c4)N(C)C(=O)CO5)CC3)cccc2n1	2.7 L/kg	1.1 mL/min/g	–	–	–	–
Cc1ccc2c(N3CCN(CCc4ccc5c(c4)NC(=O)CO5)CC3)cccc2n1	2 L/kg	< 0.5 mL/min/g	–	–	–	–
Cc1ccc2c(N3CCN(CCc4cccc5c4OCC(=O)N5)CC3)cccc2n1	3.4 L/kg	1 mL/min/g	63%	8 mL/min/kg	5.2 h	–
Cc1ccc2c(N3CCN(CCc4cccc5c4OCC(=O)N5C)CC3)cc(F)cc2n1	2.1 L/kg	3.2 mL/min/g	41%	21 mL/min/kg	1.4 h	1.1
Cc1ccc2c(N3CCN(CCc4cccc5c4OCC(=O)N5C)[C@@H](C)C3)cccc2n1	1.9 L/kg	3.5 mL/min/g	31%	44 mL/min/kg	0.8 h	1.9
Cc1ccc2c(N3CCN(CCc4cccc5c4OCC(=O)N5C)CC3)cccc2n1	1.7 L/kg	2.4 mL/min/g	26%	29 mL/min/kg	1 h	–
Cc1ccc2c(N3CCN(CCCc4cccc5c4OCC(=O)N5C)CC3)cccc2n1	5.2 L/kg	2.1 mL/min/g	–	55 mL/min/kg	1.5 h	2.9
